The values that follow come from US20150045312A1, “Use of Compounds Elevating Glutathione Levels for the Treatment of Autism, Autistic Spectrum Disorders and Fragile X Syndrome” (Promentis Pharmaceuticals, Inc., priority 2013, published 2015).

The conditions of data set [1]: schizophrenia, bipolar disorder, obsessive-compulsive disorder, autism; cited from earlier work.
For data set [2] the following is noted: autistic patients, added to risperidone treatment; cited from earlier work.
The conditions of data set [3]: in vivo; cited from earlier work.
The conditions of data set [4]: cited from earlier work.
Another data set addresses T1, system xc− (Homo sapiens, UniProt Q9UPY5).
T1 construct: a cell line with high system xc− expression; endogenous in cells; host or cells: 1321N1 human astrocytoma cells
T1 sequence (Q9UPY5 1-501): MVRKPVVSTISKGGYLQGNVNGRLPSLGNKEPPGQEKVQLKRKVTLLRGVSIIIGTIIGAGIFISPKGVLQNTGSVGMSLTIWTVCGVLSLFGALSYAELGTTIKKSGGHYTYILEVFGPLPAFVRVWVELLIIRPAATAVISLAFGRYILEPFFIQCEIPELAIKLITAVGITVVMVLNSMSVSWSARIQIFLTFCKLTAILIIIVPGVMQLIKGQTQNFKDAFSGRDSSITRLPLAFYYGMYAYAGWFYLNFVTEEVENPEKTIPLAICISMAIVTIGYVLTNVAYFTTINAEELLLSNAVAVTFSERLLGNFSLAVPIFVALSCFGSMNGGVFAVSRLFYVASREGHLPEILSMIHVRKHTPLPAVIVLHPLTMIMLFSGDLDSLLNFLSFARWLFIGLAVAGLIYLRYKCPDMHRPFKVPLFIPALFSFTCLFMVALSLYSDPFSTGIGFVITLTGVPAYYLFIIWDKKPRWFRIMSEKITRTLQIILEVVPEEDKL
T1 sequence (P08195 1-529 partner): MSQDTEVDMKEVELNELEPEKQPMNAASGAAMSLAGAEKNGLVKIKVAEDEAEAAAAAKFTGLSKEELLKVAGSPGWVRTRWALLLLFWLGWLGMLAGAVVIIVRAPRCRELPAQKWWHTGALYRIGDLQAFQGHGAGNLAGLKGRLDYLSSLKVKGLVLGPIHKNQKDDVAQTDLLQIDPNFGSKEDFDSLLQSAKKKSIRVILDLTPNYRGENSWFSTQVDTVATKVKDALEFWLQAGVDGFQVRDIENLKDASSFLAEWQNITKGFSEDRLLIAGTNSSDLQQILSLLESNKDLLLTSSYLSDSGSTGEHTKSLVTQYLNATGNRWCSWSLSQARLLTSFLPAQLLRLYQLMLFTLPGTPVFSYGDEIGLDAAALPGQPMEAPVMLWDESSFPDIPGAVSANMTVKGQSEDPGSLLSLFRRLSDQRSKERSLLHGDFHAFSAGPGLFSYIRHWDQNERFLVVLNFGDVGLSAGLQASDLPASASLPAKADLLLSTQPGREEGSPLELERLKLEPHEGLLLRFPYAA
Put plainly: in vitro screening assay in human glial cells from brain astrocytoma (1321N1). Format: cell-based. The note with it: 1321N1 cells, high system xc− expression. An excerpt: Using an in vitro screening assay conducted in human glial cells from brain astrocytoma (1321N1), a cell line with high system xc− expression, the compound with the following formula: […]
Using an in vitro screening assay conducted in human glial cells from brain astrocytoma (1321N1), a cell line with high System xc− expression, the compound with the following formula: […]

Data set [5] in a line: pre-pulse inhibition (PPI) efficacy model of neuropsychiatric disease activity. Type of data set: in vivo.
Data set [6] in a line: elevated plus maze (EPM) efficacy model of neuropsychiatric disease activity. Format: in vivo. Particulars: orally-active.

In the case of `CC(=O)N[C@@H](CS)C(=O)O` [NAC, N-acetyl cysteine], the “symptoms of mental disorders” value in data set [1] is given as “modestly improve symptoms”. For the same compound, in data set [2], the “irritability versus risperidone+placebo” value was “significantly decrease irritability”. The “entry into the CNS” value in data set [3] was “do not readily enter the CNS”. In addition, the solubility characteristics entry in data set [4] is given as “poor solubility characteristics”.

`O=C(Cc1ccccc1)N[C@@H](CSC(c1ccccc1)(c1ccccc1)c1ccccc1)C(=O)O` [drawing 15]: at system xc−, the 3H-glutamate result is “significant elevations”; the “uptake of 14C-cystine” value is “robust and significant decrease”.

For `O=C(Cc1ccccc1)N[C@@H](CSC(c1ccccc1)(c1ccccc1)c1ccccc1)C(=O)O` [drawing 16], the “response in PPI model compared with clozapine” value in data set [5] (at a comparable dose range, similar to clozapine) is listed as “antipsychotic-like response”. Moreover, in data set [5] (orally-active), the “behavioral effects in PPI model” value is listed as “significant behavioral effects”. For the same compound, the “behavioral effects in EPM model” value in data set [6] is recorded as “significant behavioral effects”.

Regarding `N[C@@H](CCC(=O)N[C@@H](CS)C(=O)NCC(=O)O)C(=O)O` [glutathione], the “entry into the CNS” value in data set [3] is on record as “do not readily enter the CNS”. For the same compound, in data set [4], the solubility characteristics entry is reported as “poor solubility characteristics”.
